Where a SMILES comes first, the peptide text is derived from it.
Key:
[1] = system: smooth muscle of tracheal rings; assay: spasmodic contraction of tracheal rings ex vivo (histamine-induced); design: species or system Dunkin-Hartley guinea pigs; details: for Effectiveness (Emax) (%): relaxation of tracheal rings contracted by histamine (50 μM); for Effectiveness (Emax) (%) / Potency (pEC50) Molar: mean±SEM; for Potency (pEC50) Molar: tracheal rings contracted by histamine (50 μM), peptides 0.01 to 10 μM
Protocol: The magnitude of the relaxing effect of the peptides was evaluated by means of a model of spasmodic contraction of tracheal rings ex vivo, largely employed to test new bronchodilating agents (see CULLUM, V. A., FARMER, J. B., JACK, D., LEVY, G. P. Salbutamol: a new, selective β-adrenoceptive receptor stimulant. British journal of pharmacology, 35(1): 141-151. 1969; KAO, C. H., CHU, Y. H., WANG, H. W. Effects of lidocaine on rat's isolated tracheal smooth muscle. European Archives of Oto-Rhino-Laryngology, 267(5): 817-820. 2010; SORIANO-URSÚA, M. A., VALENCIA-HERNÁNDEZ, I., ARELLANO-MENDOZA, M. G., CORREA-BASURTO, J., TRUJILLO-FERRARA, J. G. Synthesis, pharmacological and in silico evaluation of 1-(4-dihydroxy-3, 5-dioxa-4-borabycyclo [4.4.0] deca-7,9,11-trien-9-yl)-2-(tert-butylamine) ethanol, a compound designed to act as a β2 adrenoceptor agonist. European journal of medicinal chemistry, 44(7): 2840-2846. 2009).
For each test, Dunkin-Hartley guinea pigs (400-500 g) were euthanized in a CO2 atmosphere; subsequently, the trachea was exposed, removed and sectioned in segments of 1 to 3 cartilaginous tracheal rings. Each segment was transferred to an individual organ bath system containing Krebs nutritive solution (NaCl 118 mM; KCl […]; CaCl2) 2.5 mM; MgSO4 1.2 mM; KH2PO4 1.2 mM; NaHCO324 mM; glucose 11 mM) at 37° C., under constant aeration with a carbogenic mixture (95% of O2 and 5% of CO2). In each system, a stem fixed to the base of the container and another connected to an isometric transducer (GRASS FT-03) made up the support of the fragments. A data digitizing system connected to the isometric transducer allowed the recording of tension variations produced by the contraction of the tracheal rings (PowerLab™ 16/30, LabChart, version 8.1, AD Instruments, Australia). The basal tension was adjusted to 1 g, and subsequently, the contractility of the fragments was evaluated by a stimulus with carbachol (2.5 μM). After 1 h at rest, the basal tension was recovered and the tissues were subjected to contraction induced by histamine (50 μM) followed by exposure to increasing concentrations of the treatments (0.01 to 10 μM; n=8) or the comparator PnTx(19).
Table 1 lists the mean±SEM of the potency values, shown as the negative logarithm of the concentration that reduced the voltage to 50% of the maximum Histamine-induced contraction (pEC50), and efficacy (Emax), calculated from at least 8 independent tests using the sigmoid nonlinear regression equation of the software Graph Prism 5.0 (GraphPad Software, La Jolla, Ca, USA).

cavernosal strips = assay: relaxation induced by electric stimuli in cavernosal strips pre-contracted with phenylephrine ex vivo; design: species or system rats of Sprague Dawley (SD) lineage; details: peptides 10^−10 M; 10^−8 M; 10^−6 M; FIG. 3
Protocol: The relaxing potential of the peptides of the present invention on the smooth muscles of cavernous strips was evaluated ex vivo using tissue isolated from rats, a model that is largely used to test drug candidates for the treatment of ED (ITALIANO, G., CALABRÒ, A., PAGANO, F. A simplified in vitro preparation of the corpus cavernosum as a tool for investigating erectile pharmacology in the rat. Pharmacological research, 30(4): 325-334. 1994; GEMALMAZ, H., WALDECK, K., CHAPMAN, T. N., TUTTLE, J. B., STEERS, W. D., ANDERSSON, K E. In vivo and in vitro investigation of the effects of sildenafil on rat cavernous smooth muscle. The Journal of Urology, 165(3): 1010-1014.2001).
Male rats of Sprague Dawley (SD) lineage were sacrificed by guillotine; the penises were removed surgically and placed on a Petri dish containing Krebs—bicarbonate solution (NaCl 118.1 mM; KCl 4.7 mM; KH2PO4 1.0 mM; MgSO4 1.0 mM; NaHCO3 25.0 mM; CaCl2) 2.5 mM and Glucose 11.1 mM). The corpus cavernosum were dissected by removing the glans, urethra, spongeous body and dorsal vein, and then separated by cutting the fibrous septum between them. Cavernosal strips measuring 2×2×7 mm were mounted separately in a bath for isolated organs containing bicarbonate solution-Krebs (pH 7.4) at 37° C., aerated with 95% of O02 and 5% of CO2. The tissue was connected to a tension transducer and the changes in tension were continuously registered. The cavernosal strips were contracted with phenylephrine (10^−5 M) and subsequently relaxed by electrical stimulation at different frequencies (1 to 32 Hz). […] Differences in the percentage of relaxation between treatment and control were evaluated with regard to statistical significance by means of two-way variance analysis (Two-Way ANOVA) followed by Bonferroni post-test. For the comparison between the treatments and control in light of the stimulation in a single frequency, the results were evaluated by one-way analysis variance (One-Way ANOVA) followed by Bonferroni post-test. […]

Row | SMILES | Effectiveness (Emax) (%) [1] | Potency (pEC50) Molar [1] | enhancing effect on relaxation induced by electric stimuli in strips of cavernous body contracted by phenylephrine (cavernosal strips) | relaxing effect on airway (tracheal ring) smooth muscle, in words ([1]; histamine-induced contraction ex vivo)
1 | CC[C@H](C)[C@H](NC(=O)[C@H](Cc1c[nH]c2ccccc12)NC(=O)[C@H](Cc1ccccc1)NC(C)=O)C(=O)N[C@@H](C)C(=O)N[C@@H](Cc1c[nH]c2ccccc12)C(=O)N[C@@H](Cc1ccc(O)cc1)C(=O)N[C@@H](CCCCN)C(=O)N[C@@H](CC(C)C)C(=O)N[C@@H](C)C(N)=O [SEQ ID NO: 19, Ac-Phe-Trp-Ile-Ala-Trp-Tyr-Lys-Leu-Ala-NH2] (Ac-FWIAWYKLA-NH2) | 40.0 ± 3.4% | 7.3 ± 0.4 Molar | enhancing effect | 
2 | CC[C@H](C)[C@H](NC(C)=O)C(=O)N[C@@H](C)C(=O)N[C@@H](Cc1c[nH]c2ccccc12)C(=O)N[C@@H](Cc1ccc(O)cc1)C(=O)N[C@@H](CCCCN)C(N)=O [SEQ ID NO: 24, Ac-Ile-Ala-Trp-Tyr-Lys-NH2] (Ac-IAWYK-NH2) | 29.0 ± 1.0% | 7.9 ± 0.3 Molar | enhancing effect | effective

Reference: US10905738B2, “Synthetic peptides, prodrugs, pharmaceutical compositions and uses” (Biozeus Desenvolvimento De Produtos Biofarmacêuticos, priority 2018, dated 2021)
